Data as given in patent publication US5326788A, “Biological fluid purification system” (priority 1992, dated 1994).

Tested on: HIV-1 env
Assay: Syncytia assay, cell line expressing only envelope proteins of HIV-1 IIIb with Supt-1 cells
Format: cell-based
Details: for syncytia score (number 0-4, size S/M/L): 24 hours
Experimental: In order to assess the effects of Hy and Ps on the ability of HIV to form syncytia, the following experiments were performed. For the analysis of HIV-1, an entry syncytia assay was performed by co-culturing H9 cells (described in Popovic, M. et al. Science 224: 497-500, 1984) infected with the IIIb isolate of HIV with uninfected Supt-1 cells (Walker, B. D. et al. Proc. Nat. Acad. Sci. (USA) 84: 8120-8124, 1987) as the target cell. HIV-2 was tested using HUT78 cells (obtained from the National Institute of Health by reference to Depository Catalog, Reagent Program, Bethesda, Md.) infected with the ROD-2 isolate of HIV-2 co-cultured with uninfected H9 target cells. The infected cells were plated in 96 well plates (10^4 cells per well in RPM1 1640 medium with 10% fetal calf serum) and incubated with or without dilutions of Ps or Hy for 30 minutes at 37° C. 1×10^5 target cells were then added per well and the number of syncytia were quantitatively and qualitatively determined after 24 hours.
Also tested in a syncytia assay was a constructed cell line expressing only the envelope proteins of HIV-1 type IIIb isolate (Walker, B. D. et al., supra). These cells, designated HIV-1 env in Table 6, were treated with the indicated concentrations of Ps or Hy and incubated with uninfected Supt-1 target cells as above.

In the case of `Cc1cc(O)c2c(=O)c3c(O)cc(O)c4c5c(O)cc(O)c6c(=O)c7c(O)cc(C)c8c1c2c(c34)c(c78)c65` [hypericin], the “syncytia score (number 0-4, size S/M/L)” value (7 nanograms) is reported as 4 L, the “syncytia score (number 0-4, size S/M/L)” value (14 nanograms) is reported as 4 L and the “syncytia score (number 0-4, size S/M/L)” value (28 nanograms) is reported as 4 L. For the same molecule, the “syncytia score (number 0-4, size S/M/L)” value (56 nanograms) was 4 L, the “syncytia score (number 0-4, size S/M/L)” value (112 nanograms) was 3 M and the “syncytia score (number 0-4, size S/M/L)” value (225 nanograms) was 0. For the same molecule, the “syncytia score (number 0-4, size S/M/L)” value (450 nanograms) was 0, the “syncytia score (number 0-4, size S/M/L)” value (900 nanograms) was 0 and the “syncytia score (number 0-4, size S/M/L)” value (1800 nanograms) was 0. The “inhibition of the viral entry process (comparison)” value (HIV-1 env cells and live virus assays) was “more effective than pseudohypericin”.
